Measurements taken from patent US20230416329A1, “A PEPTIDE WITH DISULFIDE BONDS AND INHIBITORY ACTIVITY AGAINST SERINE PROTEASES, DERIVED HYBRID PEPTIDES THEREOF, AND USES THEREOF” (INSTITUTE OF MATERIA MEDICA , CHINESE ACADEMY OF MEDICAL …, priority 2020, published 2023).

Tests used:
DPP-IV = DPP-IV (Homo sapiens, UniProt P27487); test: Tolerance of GLP-1 and its analogues to DPP-IV (RP-HPLC remaining peak area); type: in vitro ADME; settings: peptide 25 μM, DPP-IV 0.5 ng/μL, 37° C.
Description: (§1) Mix by centrifugation at 8000 rpm for 30 seconds.
(2) Arrange a certain volume of 0.005 μg/μL DPP-IV solution in another sterile EP.

elastase = elastase (Sus scrofa, UniProt P00772); test: in vitro
Chain of elastase (P00772 27-266): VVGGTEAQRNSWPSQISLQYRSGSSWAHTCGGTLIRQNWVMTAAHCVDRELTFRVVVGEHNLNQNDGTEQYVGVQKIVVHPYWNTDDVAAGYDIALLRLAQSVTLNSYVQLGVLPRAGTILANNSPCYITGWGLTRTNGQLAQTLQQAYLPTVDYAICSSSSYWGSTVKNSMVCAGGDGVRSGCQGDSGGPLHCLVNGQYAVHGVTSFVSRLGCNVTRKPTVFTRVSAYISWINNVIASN
Description: FIG. 19. […] At different time point, 25 μL aliquots was taken out, and 10% (v/v) TFA was added to terminate the reaction.
as §1
Arrange a certain volume of 0.5 μg/μL elastase solution in another sterile EP. Incubate the EP tubes containing peptides and enzymes at 37° C. for 5 min, and then add 4.5 μL of elastase solution to each EP tube containing peptides and mix well. Start timing and remove 25 μL of reaction solution at 1.5, 3.0, 4.5, 6.0, 9.0, 15.0, 30.0, and 60.0 min later, respectively. Add 3.75 μL of 10% TFA to terminate the reaction and mix well by centrifugation at 8000 rpm for 30 seconds.
Referring to the experimental method in Example 5, in vitro stability of salmon Calcitonin analogs with oral administration activity to the enzymatic hydrolysis by trypsin, chymotrypsin and elastase were performed.
Referring to the experimental method in Example 5, in vitro stability of IL-17A inhibitory peptides towards the enzymatic hydrolysis by trypsin, chymotrypsin and elastase were performed.

[1] = Stability of GLP-1 and its analogues in human serum; settings: 25% (v/v) human serum
NEP24.11 = NEP24.11 (Homo sapiens, UniProt P08473); test: Tolerance of GLP-1 and its analogues to NEP24.11 (RP-HPLC remaining peak area); type: in vitro ADME; settings: after 8 hours
Chain of NEP24.11 (P08473 whole entry): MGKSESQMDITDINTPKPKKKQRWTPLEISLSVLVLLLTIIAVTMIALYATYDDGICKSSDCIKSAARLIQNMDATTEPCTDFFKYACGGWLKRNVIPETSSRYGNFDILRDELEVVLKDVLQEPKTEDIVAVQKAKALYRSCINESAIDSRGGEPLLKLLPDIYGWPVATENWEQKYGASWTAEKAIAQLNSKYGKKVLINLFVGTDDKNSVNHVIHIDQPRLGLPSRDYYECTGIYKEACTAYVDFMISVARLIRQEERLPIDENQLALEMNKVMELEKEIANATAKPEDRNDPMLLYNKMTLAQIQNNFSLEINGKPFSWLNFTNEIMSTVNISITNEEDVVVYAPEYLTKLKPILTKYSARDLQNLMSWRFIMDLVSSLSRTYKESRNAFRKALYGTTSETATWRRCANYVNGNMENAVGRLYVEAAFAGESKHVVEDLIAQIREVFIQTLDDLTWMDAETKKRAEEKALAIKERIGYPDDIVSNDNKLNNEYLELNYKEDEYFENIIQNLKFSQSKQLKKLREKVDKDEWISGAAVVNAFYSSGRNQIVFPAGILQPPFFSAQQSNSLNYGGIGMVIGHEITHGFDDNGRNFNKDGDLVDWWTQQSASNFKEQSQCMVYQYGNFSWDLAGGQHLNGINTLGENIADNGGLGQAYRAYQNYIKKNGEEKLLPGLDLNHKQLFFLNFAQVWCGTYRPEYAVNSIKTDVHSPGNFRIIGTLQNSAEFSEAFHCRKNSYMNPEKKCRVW
Description: as §1
Arrange a certain volume of 0.04 μg/μL NEP24.11 enzyme solution in another sterile EP.

chymotrypsin = chymotrypsin (Bos taurus, UniProt P00766); test: Stability of hybrid peptides (GLP-1, PCSK9, calcitonin, 17A analogues) against chymotrypsin hydrolysis (RP-HPLC remaining peak area)
How it was run: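 Peptide and 0.05 μg/μL chymotrypsin were preincubated at 37 °C for 5 min, then mixed. Aliquots taken from 1.5 up to 60.0 min were quenched with 10% TFA, and remaining peptide was measured as RP-HPLC peak area.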

[2] = isolated enzyme elastase, pH 8, Remaining peak area (%)/elastase

Chain of DPP-IV (P27487 whole entry, species assumed): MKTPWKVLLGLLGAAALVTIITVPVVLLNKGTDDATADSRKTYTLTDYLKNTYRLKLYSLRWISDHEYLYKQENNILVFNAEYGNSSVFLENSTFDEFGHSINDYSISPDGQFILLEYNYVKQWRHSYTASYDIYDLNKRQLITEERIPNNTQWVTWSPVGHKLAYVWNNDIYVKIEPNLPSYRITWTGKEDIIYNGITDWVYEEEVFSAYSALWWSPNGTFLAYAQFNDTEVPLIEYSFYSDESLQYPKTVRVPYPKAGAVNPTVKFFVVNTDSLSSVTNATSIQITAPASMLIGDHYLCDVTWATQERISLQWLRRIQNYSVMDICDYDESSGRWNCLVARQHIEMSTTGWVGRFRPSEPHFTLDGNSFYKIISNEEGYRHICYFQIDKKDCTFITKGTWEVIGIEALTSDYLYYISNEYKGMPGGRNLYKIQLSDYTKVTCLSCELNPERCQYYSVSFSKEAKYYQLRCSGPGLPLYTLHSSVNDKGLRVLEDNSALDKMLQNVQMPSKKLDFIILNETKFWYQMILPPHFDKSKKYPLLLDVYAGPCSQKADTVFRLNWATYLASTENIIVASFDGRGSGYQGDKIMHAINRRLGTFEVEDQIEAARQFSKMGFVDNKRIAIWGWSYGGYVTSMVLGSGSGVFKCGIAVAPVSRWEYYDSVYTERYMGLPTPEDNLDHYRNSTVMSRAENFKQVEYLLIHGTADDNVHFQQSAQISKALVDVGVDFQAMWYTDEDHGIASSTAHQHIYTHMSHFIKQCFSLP

CC[C@H](C)[C@H](NC(=O)[C@H](Cc1ccccc1)NC(=O)[C@H](CCC(=O)O)NC(=O)[C@H](CCCCN)NC(=O)[C@H](C)NC(=O)[C@H](C)NC(=O)[C@H](CCC(N)=O)NC(=O)CNC(=O)[C@H](CCC(=O)O)NC(=O)[C@H](CC(C)C)NC(=O)[C@H](Cc1ccc(O)cc1)NC(=O)[C@H](CO)NC(=O)[C@H](CO)NC(=O)[C@@H](NC(=O)[C@H](CC(=O)O)NC(=O)[C@H](CO)NC(=O)[C@@H](NC(=O)[C@H](Cc1ccccc1)NC(=O)[C@@H](NC(=O)CNC(=O)[C@H](CCC(=O)O)NC(=O)[C@H](C)NC(=O)[C@H](Cc1c[nH]cn1)NC(=O)CNC(=O)CNC(=O)[C@@H](NC(=O)[C@@H]1CCCN1C(=O)[C@@H](NC(=O)CNC(=O)CNC(=O)[C@H](Cc1ccc(O)cc1)NC(=O)[C@@H]1CSSC[C@H](NC(=O)[C@@H](N)CC(C)C)C(=O)N[C@@H]([C@@H](C)O)C(=O)N[C@@H](C)C(=O)N[C@@H](CO)C(=O)N[C@@H]([C@@H](C)CC)C(=O)N2CCC[C@H]2C(=O)N2CCC[C@H]2C(=O)N[C@@H](CCC(N)=O)C(=O)N1)[C@@H](C)CC)[C@@H](C)CC)[C@@H](C)O)[C@@H](C)O)C(C)C)C(=O)N[C@@H](C)C(=O)N[C@@H](Cc1c[nH]c2ccccc12)C(=O)N[C@@H](CC(C)C)C(=O)N[C@H](C(=O)N[C@@H](CCCCN)C(=O)NCC(=O)N[C@@H](CCCNC(=N)N)C(=O)NCC(=O)NCC(=O)N[C@@H](CCCCN)C(=O)O)C(C)C [EC1-D-GLP-1]
Remaining peak area (%)/DPP-IV (DPP-IV; 0.0 h): 100.0 ± 0.0% | remaining at 0.5 h, 25 μM (DPP-IV; isolated DPP-IV enzyme in buffer, pH 8, 0.5 h): 101 ± 1.7% | remaining at 2 h, 25 μM (DPP-IV; isolated DPP-IV enzyme in buffer, pH 8, 2.0 h): 99.6 ± 0.6% | remaining at 4 h, 25 μM (DPP-IV; isolated DPP-IV enzyme in buffer, pH 8, 4.0 h): 104.5 ± 0.3% | remaining at 8 h, 25 μM (DPP-IV; isolated DPP-IV enzyme in buffer, pH 8, 8.0 h): 97.4 ± 4.2% | remaining at 12 h, 25 μM (DPP-IV; isolated DPP-IV enzyme in buffer, pH 8, 12.0 h): 93.6 ± 4.9% | Remaining peak area (%)/elastase (elastase; isolated enzyme elastase, 1 h, 60 μM, pH 8): 24.2 ± 0.6% | remaining at 0.025 h, 60 μM (elastase; [2]): 86 ± 5.4% | remaining at 0.05 h, 60 μM (elastase; [2]): 81.9 ± 3.9% | remaining at 0.075 h, 60 μM (elastase; [2]): 80.3 ± 2% | remaining at 0.1 h, 60 μM (elastase; [2]): 80.1 ± 3.4% | remaining at 0.15 h, 60 μM (elastase; [2]): 76.2 ± 1.6% | remaining at 0.25 h, 60 μM (elastase; [2]): 70.4 ± 4.5% | remaining at 0.5 h, 60 μM (elastase; [2]): 40.9 ± 1.1% | remaining at 1 h, 60 μM (elastase; [2]): ~20% | Remaining peak area (%)/human serum ([1]; 0.0 h, peptide 0.03 mM, 37° C.): 100.0 ± 0.0% | remaining at 0.5 h, 0.03 mM ([1]; human, pH 7): 72.8 ± 0.8% | remaining at 2 h, 0.03 mM ([1]; human, pH 7): 40.8 ± 4.3% | remaining at 4 h, 0.03 mM ([1]; human, pH 7): 23.4 ± 1.9% | remaining at 8 h, 0.03 mM ([1]; human, pH 7): 11.7 ± 2% | remaining at 12 h, 0.03 mM ([1]; human, pH 7): 3.4 ± 0.4%

CC[C@H](C)[C@H](NC(=O)[C@H](Cc1ccccc1)NC(=O)[C@H](CCC(=O)O)NC(=O)[C@H](CCCCN)NC(=O)[C@H](C)NC(=O)[C@H](C)NC(=O)[C@H](CCC(N)=O)NC(=O)CNC(=O)[C@H](CCC(=O)O)NC(=O)[C@H](CC(C)C)NC(=O)[C@H](Cc1ccc(O)cc1)NC(=O)[C@H](CO)NC(=O)[C@H](CO)NC(=O)[C@@H](NC(=O)[C@H](CC(=O)O)NC(=O)[C@H](CO)NC(=O)[C@@H](NC(=O)[C@H](Cc1ccccc1)NC(=O)[C@@H](NC(=O)CNC(=O)[C@H](CCC(=O)O)NC(=O)[C@H](C)NC(=O)[C@@H](N)Cc1c[nH]cn1)[C@@H](C)O)[C@@H](C)O)C(C)C)C(=O)N[C@@H](C)C(=O)N[C@@H](Cc1c[nH]c2ccccc12)C(=O)N[C@@H](CC(C)C)C(=O)N[C@H](C(=O)N[C@@H](CCCCN)C(=O)NCC(=O)N[C@@H](CCCN=C(N)N)C(=O)NCC(=O)O)C(C)C [GLP-1 (7-37), reference compound]
degradation by NEP24.11 (in words) (NEP24.11): almost completely degraded | stability towards chymotrypsin hydrolysis (in words) (chymotrypsin): completely degraded | Remaining peak area (%)/elastase (elastase; 30.0 min, peptide 60 μM, elastase 10 ng/μL, 37° C.): no GLP-1 prototype molecule was detected
